According to patent US12498382B2, “Biomarkers for vitiligo” (INCYTE CORPORATION, priority 2019, dated 2025):

Tested on: HaCaT cells
Test: Concentrations of inflammatory mediators produced by HaCaT cells stimulated with TNFα and IFNγ in presence/absence of JAK inhibitors (ProCarta)
Format: cell-based, human
Method: After 48 hours, cell culture media was removed from 24 well plates and replaced with 250 uL of media containing serial diluted drug, then incubated for 15 minutes at 37° C./5% CO2. […] The final concentration of Recombinant Human Interferon gamma and Recombinant Human Tumor Necrosis Factor alpha was 25 ng/mL of each cytokine. Cytokine stimulation added to wells containing drug brought the final concentrations for each drug treatment to 25 nM, 50 nM, 100 nM, and 200 nM. Treated plates were mixed by gentle agitation for 30 seconds then incubated for 24 hours at 37° C./5% CO2. At the end of the 24 hour incubation media was immediately removed from each plate.
Media was incubated with antibody conjugated beads designed to bind to the epitopes of specific target proteins and identify the bound protein through the bead's distinctive spectral pattern. Biotinylated detection antibodies, designed to bind to different epitopes of the same target proteins, and Streptavidin-PE are added to assay plates to quantify the amount of the target proteins. Assay plates were read on the Luminex 200 and data were expressed as Net Median Fluorescence Intensity. […] The concentration of each protein was extrapolated from the antigen standard curve and concentrations were expressed as pg/mL (Table 15).

[1] = TNFα 25 ng/mL + IFNγ 25 ng/mL, drug 25 nM
[2] = TNFα 25 ng/mL + IFNγ 25 ng/mL, drug 50 nM
[3] = TNFα 25 ng/mL + IFNγ 25 ng/mL, drug 100 nM
[4] = TNFα 25 ng/mL + IFNγ 25 ng/mL, drug 200 nM

Cc1n[nH]c(C)c1-c1cnn(C2(CC#N)CN(c3cc(F)c(C(=O)N[C@@H](C)C(F)(F)F)cc3F)C2)c1 [Cpc C]
BDNF concentration [1]: 4.01 ± 0.19 pg/mL | EGF concentration [1]: 1.54 ± 0.13 pg/mL | Eotaxin concentration [1]: 10.08 ± 0.15 pg/mL | FGF-2 concentration [1]: 21.41 ± 1.39 pg/mL | GM-CSF concentration [1]: 130 ± 3.15 pg/mL | GRO alpha concentration [1]: 548.93 ± 27.91 pg/mL | HGF concentration [1]: 13.66 ± 0.51 pg/mL | IFN alpha concentration [1]: 0.25 ± 0.01 pg/mL | bNGF concentration [1]: 7.86 ± 0.56 pg/mL | BDNF concentration [2]: 4 ± 0.23 pg/mL | EGF concentration [2]: 1.14 ± 0.17 pg/mL | Eotaxin concentration [2]: 9.84 ± 0.25 pg/mL | FGF-2 concentration [2]: 20.77 ± 1.37 pg/mL | GM-CSF concentration [2]: 126.18 ± 3.4 pg/mL | GRO alpha concentration [2]: 544.74 ± 37.71 pg/mL | HGF concentration [2]: 13.04 ± 0.28 pg/mL | IFN alpha concentration [2]: 0.26 ± 0 pg/mL | bNGF concentration [2]: 6.86 ± 0.6 pg/mL | BDNF concentration [3]: 4.24 ± 0.26 pg/mL | EGF concentration [3]: 1.35 ± 0.18 pg/mL | Eotaxin concentration [3]: 9.89 ± 0.22 pg/mL | FGF-2 concentration [3]: 20.84 ± 1.31 pg/mL | GM-CSF concentration [3]: 134.94 ± 4.45 pg/mL | GRO alpha concentration [3]: 575.98 ± 43.22 pg/mL | HGF concentration [3]: 13.53 ± 0.5 pg/mL | IFN alpha concentration [3]: 0.26 ± 0 pg/mL | bNGF concentration [3]: 6.93 ± 1.04 pg/mL | BDNF concentration [4]: 3.97 ± 0.22 pg/mL | EGF concentration [4]: 1.46 ± 0.17 pg/mL | Eotaxin concentration [4]: 9.89 ± 0.21 pg/mL | FGF-2 concentration [4]: 20.93 ± 1.37 pg/mL | GM-CSF concentration [4]: 132.6 ± 3.95 pg/mL | GRO alpha concentration [4]: 560.99 ± 43.32 pg/mL | HGF concentration [4]: 13.6 ± 0.53 pg/mL | IFN alpha concentration [4]: 0.26 ± 0 pg/mL | bNGF concentration [4]: 5.7 ± 0.76 pg/mL | BDNF concentration (no stimulation, drug 200 nM): 5.7 ± 0.31 pg/mL | EGF concentration (no stimulation, drug 200 nM): 1.12 ± 0.14 pg/mL | Eotaxin concentration (no stimulation, drug 200 nM): 2.28 ± 0.07 pg/mL | FGF-2 concentration (no stimulation, drug 200 nM): 8.77 ± 0.79 pg/mL | GM-CSF concentration (no stimulation, drug 200 nM): 9.48 ± 1.48 pg/mL | GRO alpha concentration (no stimulation, drug 200 nM): 236.87 ± 11.04 pg/mL | HGF concentration (no stimulation, drug 200 nM): 4.74 ± 0.47 pg/mL | IFN alpha concentration (no stimulation, drug 200 nM): 0.2 ± 0.03 pg/mL | IFN gamma concentration (no stimulation, drug 200 nM): 3.81 ± 0.74 pg/mL | bNGF concentration (no stimulation, drug 200 nM): 3.73 ± 0.63 pg/mL

CC(O)c1nc2cnc3ccsc3c2n1C1CCC(CC#N)OC1 (centres unmarked) [Cpc D]
BDNF concentration [1]: 4.08 ± 0.26 pg/mL | EGF concentration [1]: 1.49 ± 0.14 pg/mL | Eotaxin concentration [1]: 9.82 ± 0.2 pg/mL | FGF-2 concentration [1]: 22.89 ± 1.39 pg/mL | GM-CSF concentration [1]: 126.24 ± 3.53 pg/mL | GRO alpha concentration [1]: 539.42 ± 38.03 pg/mL | HGF concentration [1]: 13.47 ± 0.45 pg/mL | IFN alpha concentration [1]: 0.26 ± 0.01 pg/mL | bNGF concentration [1]: 7.44 ± 0.63 pg/mL | BDNF concentration [2]: 3.97 ± 0.25 pg/mL | EGF concentration [2]: 1.31 ± 0.19 pg/mL | Eotaxin concentration [2]: 9.58 ± 0.21 pg/mL | FGF-2 concentration [2]: 20.96 ± 1.43 pg/mL | GM-CSF concentration [2]: 124.89 ± 3.37 pg/mL | GRO alpha concentration [2]: 555.54 ± 44.74 pg/mL | HGF concentration [2]: 13.27 ± 0.45 pg/mL | IFN alpha concentration [2]: 0.26 ± 0 pg/mL | bNGF concentration [2]: 6.17 ± 0.74 pg/mL | BDNF concentration [3]: 4.18 ± 0.28 pg/mL | EGF concentration [3]: 1.23 ± 0.16 pg/mL | Eotaxin concentration [3]: 10.02 ± 0.19 pg/mL | FGF-2 concentration [3]: 21.77 ± 1.51 pg/mL | GM-CSF concentration [3]: 133.19 ± 3.97 pg/mL | GRO alpha concentration [3]: 578.28 ± 48.32 pg/mL | HGF concentration [3]: 13.75 ± 0.4 pg/mL | IFN alpha concentration [3]: 0.26 ± 0 pg/mL | bNGF concentration [3]: 7.12 ± 0.8 pg/mL | BDNF concentration [4]: 4.03 ± 0.28 pg/mL | EGF concentration [4]: 1.45 ± 0.17 pg/mL | Eotaxin concentration [4]: 9.85 ± 0.17 pg/mL | FGF-2 concentration [4]: 20.96 ± 1.34 pg/mL | GM-CSF concentration [4]: 130.42 ± 3.44 pg/mL | GRO alpha concentration [4]: 564.53 ± 52.35 pg/mL | HGF concentration [4]: 13.8 ± 0.48 pg/mL | IFN alpha concentration [4]: 0.25 ± 0.02 pg/mL | bNGF concentration [4]: 6.73 ± 0.61 pg/mL | BDNF concentration (no stimulation, drug 200 nM): 5.66 ± 0.38 pg/mL | EGF concentration (no stimulation, drug 200 nM): 1.24 ± 0.09 pg/mL | Eotaxin concentration (no stimulation, drug 200 nM): 2.08 ± 0.07 pg/mL | FGF-2 concentration (no stimulation, drug 200 nM): 8.19 ± 1.07 pg/mL | GM-CSF concentration (no stimulation, drug 200 nM): 8.49 ± 1.84 pg/mL | GRO alpha concentration (no stimulation, drug 200 nM): 234.42 ± 14.21 pg/mL | HGF concentration (no stimulation, drug 200 nM): 3.68 ± 0.39 pg/mL | IFN alpha concentration (no stimulation, drug 200 nM): 0.22 ± 0.03 pg/mL | IFN gamma concentration (no stimulation, drug 200 nM): 4.52 ± 0.68 pg/mL | bNGF concentration (no stimulation, drug 200 nM): 3.47 ± 0.48 pg/mL
